Reference: PubChem BioAssay (NCI)
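Tested at 5 concentrations; 48 h exposure; 96-well plates; endpoints linearly interpolated, else capped at highest concentration. GI50 is the concentration that inhibits growth by half. TGI: concentration producing complete growth inhibition.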

Tested on: OVCAR-5 ovarian
Test: NCI-60 cell line screen, 48 h

Going from CN(C)CCNc1nc2ccccc2c2c(=O)c3cc(F)ccc3sc12 to COc1ccc(-c2cc(-c3ccc(Nc4ccnc5cc(Cl)ccc45)cc3)nc(N3CCOCC3)n2)cc1, the GI50 rises from 1.58 µM to over 100 µM.

First: CN(C)CCNc1nc2ccccc2c2c(=O)c3cc(F)ccc3sc12
Second: O=C(CBr)c1ccc2cc(Br)c3ccccc3c2c1
The TGI of the first is 20-fold lower: 2.95 µM for the first, 57.9 µM for the second.

COc1ccc(-c2cc(-c3ccc(Nc4ccnc5cc(Cl)ccc45)cc3)nc(N3CCOCC3)n2)cc1 showed a TGI of over 100 µM.

Tested on: SK-MEL-28 melanoma
Test: NCI-60 cell line screen, 48 h

In order of rising GI50:
1. Cn1cc(-c2csc(-c3cn(C)c4ccc(F)cc34)n2)c2cnccc21  1.79 µM
2. CN(C)CCNc1nc2ccccc2c2c(=O)c3cc(F)ccc3sc12  1.79 µM

In order of falling TGI:
1. O=C(CBr)c1ccc2cc(Br)c3ccccc3c2c1  57.5 µM
2. CN(C)CCNc1nc2ccccc2c2c(=O)c3cc(F)ccc3sc12  3.23 µM
3. Cn1cc(-c2csc(-c3cn(C)c4ccc(F)cc34)n2)c2cnccc21  3.22 µM
4. Cc1cn2c(/C=N/N=C(N)N)c(-c3ccc(Cl)c([N+](=O)[O-])c3)nc2s1  3.05 µM

Tested on: SF-295 CNS
Test: NCI-60 cell line screen, 48 h

In order of rising GI50:
1. Cn1cc(-c2csc(-c3cn(C)c4ccc(F)cc34)n2)c2cnccc21  1.71 µM
2. CN(C)CCNc1nc2ccccc2c2c(=O)c3cc(F)ccc3sc12  1.76 µM
3. COc1cc(OC)c2sc(-c3ccc(-n4cncc4-c4cc(OC)c(OC)c(OC)c4)cc3)nc2c1  4.42 µM

Cn1cc(-c2csc(-c3cn(C)c4ccc(F)cc34)n2)c2cnccc21 and CN(C)CCNc1nc2ccccc2c2c(=O)c3cc(F)ccc3sc12 are within 1.5-fold of each other in TGI: 3.23 µM for the first, 3.22 µM for the second.

Compared with COc1cc(OC)c2sc(-c3ccc(-n4cncc4-c4cc(OC)c(OC)c(OC)c4)cc3)nc2c1, O=C(CBr)c1ccc2cc(Br)c3ccccc3c2c1 is lower in TGI: over 100 µM for the first, 56.7 µM for the second.

Tested on: KM12 colon
Test: NCI-60 cell line screen, 48 h

In order of falling GI50:
1. COc1cc(OC)c2sc(-c3ccc(-n4cncc4-c4cc(OC)c(OC)c(OC)c4)cc3)nc2c1  4.62 µM
2. CN(C)CCNc1nc2ccccc2c2c(=O)c3cc(F)ccc3sc12  1.93 µM
3. Cn1cc(-c2csc(-c3cn(C)c4ccc(F)cc34)n2)c2cnccc21  1.79 µM

Cn1cc(-c2csc(-c3cn(C)c4ccc(F)cc34)n2)c2cnccc21 and CN(C)CCNc1nc2ccccc2c2c(=O)c3cc(F)ccc3sc12 are within 1.5-fold of each other in TGI: 3.36 µM for the first, 3.56 µM for the second.

Compared with COc1cc(OC)c2sc(-c3ccc(-n4cncc4-c4cc(OC)c(OC)c(OC)c4)cc3)nc2c1, O=C(CBr)c1ccc2cc(Br)c3ccccc3c2c1 is lower in TGI: over 100 µM for the first, 44.1 µM for the second.

Tested on: SN12C renal
Test: NCI-60 cell line screen, 48 h

Cn1cc(-c2csc(-c3cn(C)c4ccc(F)cc34)n2)c2cnccc21 and CN(C)CCNc1nc2ccccc2c2c(=O)c3cc(F)ccc3sc12 are within 1.5-fold of each other in GI50: 1.7 µM for the first, 1.57 µM for the second.

For COc1cc(OC)c2sc(-c3ccc(-n4cncc4-c4cc(OC)c(OC)c(OC)c4)cc3)nc2c1, the GI50 was over 100 µM.

Cn1cc(-c2csc(-c3cn(C)c4ccc(F)cc34)n2)c2cnccc21 and CN(C)CCNc1nc2ccccc2c2c(=O)c3cc(F)ccc3sc12 are within 1.5-fold of each other in TGI: 3.14 µM for the first, 3 µM for the second.

COc1cc(OC)c2sc(-c3ccc(-n4cncc4-c4cc(OC)c(OC)c(OC)c4)cc3)nc2c1 was tested, and the TGI was over 100 µM.

Tested on: SR leukemia
Test: NCI-60 cell line screen, 48 h

In order of falling GI50:
1. CN(C)CCNc1nc2ccccc2c2c(=O)c3cc(F)ccc3sc12  3.27 µM
2. COc1cc(OC)c2sc(-c3ccc(-n4cncc4-c4cc(OC)c(OC)c(OC)c4)cc3)nc2c1  3.24 µM

COc1cc(OC)c2sc(-c3ccc(-n4cncc4-c4cc(OC)c(OC)c(OC)c4)cc3)nc2c1 and CN(C)CCNc1nc2ccccc2c2c(=O)c3cc(F)ccc3sc12 cannot be ordered by TGI: over 100 µM for the first, over 100 µM for the second.

O=C(CBr)c1ccc2cc(Br)c3ccccc3c2c1 was tested, and the TGI was 46.3 µM.

Tested on: SK-MEL-5 melanoma
Test: NCI-60 cell line screen, 48 h

In order of falling GI50:
1. COc1cc(OC)c2sc(-c3ccc(-n4cncc4-c4cc(OC)c(OC)c(OC)c4)cc3)nc2c1  2.46 µM
2. CN(C)CCNc1nc2ccccc2c2c(=O)c3cc(F)ccc3sc12  1.7 µM
3. Cn1cc(-c2csc(-c3cn(C)c4ccc(F)cc34)n2)c2cnccc21  1.66 µM

Cn1cc(-c2csc(-c3cn(C)c4ccc(F)cc34)n2)c2cnccc21 and CN(C)CCNc1nc2ccccc2c2c(=O)c3cc(F)ccc3sc12 are within 1.5-fold of each other in TGI: 3.05 µM for the first, 3.08 µM for the second.

First: COc1cc(OC)c2sc(-c3ccc(-n4cncc4-c4cc(OC)c(OC)c(OC)c4)cc3)nc2c1
Second: O=C(CBr)c1ccc2cc(Br)c3ccccc3c2c1
The TGI of the first is higher: over 100 µM for the first, 30.2 µM for the second.

Tested on: TK-10 renal
Test: NCI-60 cell line screen, 48 h

In order of rising GI50:
1. Cn1cc(-c2csc(-c3cn(C)c4ccc(F)cc34)n2)c2cnccc21  1.56 µM
2. CN(C)CCNc1nc2ccccc2c2c(=O)c3cc(F)ccc3sc12  1.76 µM
3. COc1cc(OC)c2sc(-c3ccc(-n4cncc4-c4cc(OC)c(OC)c(OC)c4)cc3)nc2c1  9.4 µM

Cn1cc(-c2csc(-c3cn(C)c4ccc(F)cc34)n2)c2cnccc21 and CN(C)CCNc1nc2ccccc2c2c(=O)c3cc(F)ccc3sc12 are within 1.5-fold of each other in TGI: 2.98 µM for the first, 3.33 µM for the second.

Going from COc1cc(OC)c2sc(-c3ccc(-n4cncc4-c4cc(OC)c(OC)c(OC)c4)cc3)nc2c1 to O=C(CBr)c1ccc2cc(Br)c3ccccc3c2c1, the TGI falls from over 100 µM to 36.9 µM.

Tested on: PC-3 prostate
Test: NCI-60 cell line screen, 48 h

Cn1cc(-c2csc(-c3cn(C)c4ccc(F)cc34)n2)c2cnccc21 gave a GI50 of 1.71 µM.

Cn1cc(-c2csc(-c3cn(C)c4ccc(F)cc34)n2)c2cnccc21 was tested, and the TGI was 3.31 µM.
